Measurements reported in US4064254A, “Substituted piperidines therapeutic process and compositions” (Mead Johnson & Company, priority 1976, dated 1977).
≈ marks a conversion by molar mass, not a printed value.

Columns and labels:
[1] = system: aconitine induced arrhythmia in the dog; test: aconitine induced atrial arrhythmia in the anesthetized dog, intravenous; assay type: in vivo; settings: Canis lupus familiaris, read-out: effective dose restoring normal cardiac rhythm, aconitine induced arrhythmia
Text: (§1) The chest of an anesthetized dog is opened in the midline and the right and left atrial appendages exposed through small slits in the pericardium. Bypolar recording electrodes are affixed to the atrial surfaces and a 4 × 4 mm. piece of clean cloth is fixed to the surface of the right auricular appendage. Control recordings are made of various heart functions including femoral arterial blood pressure and right and left atrial electrograms. Atrial arrhythmia is then induced by placing 3-5 drops of a solution of aconitine on the cloth which is fixed to the right atrium. […] Throughout the experiment, fresh aconitine is (2-3 drops) placed on the cloth at 10 minute intervals.

[2] = system: electrically induced arrhythmia in the dog; test: electrically induced arrhythmia in the dog; assay type: in vivo; settings: Canis lupus familiaris, iv
[3] = system: aconitine induced arrhythmia in the dog; test: prevention of aconitine induced arrhythmia in the dog, intraduodenal administration; assay type: in vivo; settings: Canis lupus familiaris, read-out: effective dose in the prevention of aconitine induced arrhythmia
Text: as §1

[4] = system: chloroform induced arrhythmia in the mouse; test: inhibition of chloroform induced arrhythmia in the mouse (Lawson); assay type: in vivo; settings: ip, intraperitoneal, read-out: ED50, prevention of chloroform induced arrhythmia
Text: Another in vivo test involves the inhibition of chloroform induced arrhythmia in the mouse according to the method of J. W. Lawson, J. Pharmacol. Exp. Therap., 160, 22 (1968).

rabbit atrium = test: in vitro rabbit atrium test (refractory period); assay type: cell-based; settings: Oryctolagus cuniculus; rabbit left atrium, 30° C., stimulated at 30 per minute; read-out: EC50 (50% of maximal increase in refractory period)
Procedure: In this test, the left atrium is placed in Chenoweth's solution warmed to 30° C. and irrigated with 95% oxygen: 5% carbon dioxide. The lower end of the atrium is attached to a small hook fixed in the bath and the upper end is connected to a transducer to record contractile activity. […] A test compound is introduced into the bath and the test repeated after a 5 minute interval. A dose-response relationship is obtained by additional doses of the test compound. […] This value is designated the EC50.

serotonin (rat uterus) = test: antiserotonin activity in the rat uterus (spasmogenic effect of serotonin); assay type: cell-based; settings: rat uterine horn, 30° C., 0.4 microgram per milliliter of serotonin; read-out: IC50 (decrease of spasmogenic effect of serotonin by 50%)
Procedure: According to this test one of the uterine horns of a rat uterus is suspended in oxygenated salt solution at 30° C. The contractions of this tissue are then recorded and varying concentrations of the test compound introduced into the bath in order to determine the concentration that would decrease the spasmogenic effect of 0.4 microgram per milliliter of serotonin by 50%. This value is designated the IC50.

[5] = system: serotonin in the brain in mice; test: antiserotonin activity in mice, 5-hydroxytryptophan / monoamine oxidase inhibitor (Corne); assay type: in vivo; settings: Mus musculus
Text: This test is dependent on the metabolism of 5-hydroxytryptophan to serotonin in the brain in mice which are pretreated with a monamine oxidase inhibitor.

SMILES	minimal effective dose [1]	minimal effective dose [2]	minimal effective dose [3]	ED50 [4]	EC50 (rabbit atrium)	IC50 (serotonin (rat uterus))	ED50 ([5]; ip, 1 h, intraperitoneal, 60 minute pretreatment)	ED50 ([5]; sc, 0.5 h, subcutaneous, 30 minute pretreatment)	ED50 ([5]; sc, 1 h, subcutaneous, 60 minute pretreatment)
COc1ccc(C(=O)Nc2ccccc2CCC2CCCCN2C)cc1 (centres unmarked) [4-methoxy-2'-[2-(1-methyl-2-piperidyl)ethyl]benzanilide]	0.8 mg/kg	1.9 mg/kg	< 10 mg/kg	7.1 mg/kg	2.4 µg/mL (≈ 6.81 µM)	0.0046 µg/mL (≈ 0.0131 µM)			
CN1CCCCC1CCc1ccccc1N (centres unmarked) [2-(o-Aminophenethyl)-1-methylpiperidine, 2-(O-Aminophenethyl)-1-methylpiperidine]					44 µg/mL (≈ 202 µM)				
CN1CCCCC1CCc1ccccc1NC(=O)C=Cc1ccccc1 (centres unmarked) [2'-[2-(1-Methyl-2-piperidyl)ethyl]-cinnamanilide]						0.00185 µg/mL (≈ 0.00531 µM)	21 mg/kg	4.3 mg/kg	10 mg/kg
C=C[C@H]1C[N@@]2CC[C@H]1C[C@@H]2[C@@H](O)c1ccnc2ccc(OC)cc12 [quinidine, reference compound]	6 mg/kg	14 mg/kg	> 14 mg/kg	83 mg/kg	18 µg/mL (≈ 55.5 µM)				
CCN(CC)C(=O)[C@@H]1C=C2c3cccc4[nH]cc(c34)C[C@H]2N(C)C1 [lysergide, reference compound]						0.012 µg/mL (≈ 0.0371 µM)			
